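48-hour exposure; five concentrations; linearly interpolated endpoints. TGI is the concentration that stops growth completely.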
Columns and labels:
Test in all cases: growth of human tumour cells (NCI), 48 h
[1] = test system: 786-0 renal
[2] = test system: A498 renal
[3] = test system: A549 NSCLC
[4] = test system: ACHN renal
[5] = test system: BT-549 breast
[6] = test system: CAKI-1 renal
[7] = test system: CCRF-CEM leukemia
[8] = test system: COLO 205 colon
[9] = test system: DU-145 prostate
[10] = test system: EKVX NSCLC
[11] = test system: HCC-2998 colon
[12] = test system: HCT-116 colon
[13] = test system: HCT-15 colon
[14] = test system: HL-60(TB) leukemia
[15] = test system: HOP-62 NSCLC
[16] = test system: HOP-92 NSCLC
[17] = test system: HS 578T breast
[18] = test system: HT29 colon
[19] = test system: IGROV1 ovarian
[20] = test system: K-562 leukemia
[21] = test system: KM12 colon
[22] = test system: LOX IMVI melanoma
[23] = test system: M14 melanoma
[24] = test system: MALME-3M melanoma
[25] = test system: MCF7 breast
[26] = test system: MDA-MB-231 breast
[27] = test system: MDA-MB-435
[28] = test system: MDA-N
[29] = test system: MOLT-4 leukemia
[30] = test system: NCI-H23 lung
[31] = test system: NCI-H460 lung
[32] = test system: NCI-H522 lung
[33] = test system: NCI/ADR-RES ovarian
[34] = test system: OVCAR-3 ovarian
[35] = test system: OVCAR-5 ovarian
[36] = test system: OVCAR-8 ovarian
[37] = test system: PC-3 prostate
[38] = test system: RPMI-8226 leukemia
[39] = test system: RXF 393 renal
[40] = test system: SF-268 CNS
[41] = test system: SF-295 CNS
[42] = test system: SF-539 CNS
[43] = test system: SK-MEL-2 melanoma
[44] = test system: SK-MEL-28 melanoma
[45] = test system: SK-MEL-5 melanoma
[46] = test system: SK-OV-3 ovarian
[47] = test system: SN12C renal
[48] = test system: SNB-19 CNS
[49] = test system: SNB-75 CNS
[50] = test system: SW-620 colon
[51] = test system: T-47D breast
[52] = test system: TK-10 renal
[53] = test system: U251 CNS
[54] = test system: UACC-257 melanoma
[55] = test system: UACC-62 melanoma
[56] = test system: UO-31 renal
[57] = test system: NCI-H226 lung
[58] = test system: OVCAR-4 ovarian

COc1ccc2c(c1)/C(=C\c1c(-c3ccccc3)nc3n1CCS3)C(=O)N2
TGI [1]: 28.6 µM
TGI [2]: 21.3 µM
TGI [3]: 55.9 µM
TGI [4]: 56.8 µM
TGI [5]: 32.7 µM
TGI [6]: 37.4 µM
TGI [7]: 26.9 µM
TGI [8]: 11.2 µM
TGI [9]: 60 µM
TGI [10]: 48 µM
TGI [11]: 22.9 µM
TGI [12]: 18.2 µM
TGI [13]: 40.6 µM
TGI [14]: 11.4 µM
TGI [15]: 27.6 µM
TGI [16]: 30.8 µM
TGI [17]: 38.7 µM
TGI [18]: 16 µM
TGI [19]: 21.4 µM
TGI [20]: 17 µM
TGI [21]: 19.6 µM
TGI [22]: 20.6 µM
TGI [23]: 23 µM
TGI [24]: 30.7 µM
TGI [25]: 29 µM
TGI [26]: 17.9 µM
TGI [27]: 7.19 µM
TGI [28]: 5.62 µM
TGI [29]: 16.9 µM
TGI [30]: 33.4 µM
TGI [31]: 14.4 µM
TGI [32]: 24.4 µM
TGI [33]: 35.4 µM
TGI [34]: 15.6 µM
TGI [35]: 51.8 µM
TGI [36]: 47.5 µM
TGI [37]: 17.2 µM
TGI [38]: 32.2 µM
TGI [39]: 34.3 µM
TGI [40]: 28.1 µM
TGI [41]: 15.1 µM
TGI [42]: 19.1 µM
TGI [43]: 20.2 µM
TGI [44]: 27.7 µM
TGI [45]: 17 µM
TGI [46]: 34.5 µM
TGI [47]: 27.6 µM
TGI [48]: > 100 µM
TGI [49]: 36.8 µM
TGI [50]: 16.3 µM
TGI [51]: 61.6 µM
TGI [52]: 27.8 µM
TGI [53]: 20.3 µM
TGI [54]: 27.4 µM
TGI [55]: 18.2 µM
TGI [56]: 34.2 µM

COc1ccc(-n2cnc3c(N)nc(N)nc32)cc1
TGI [1]: > 100 µM
TGI [2]: > 100 µM
TGI [3]: > 100 µM
TGI [4]: > 100 µM
TGI [5]: > 100 µM
TGI [6]: > 100 µM
TGI [7]: > 100 µM
TGI [8]: > 100 µM
TGI [9]: > 100 µM
TGI [10]: > 100 µM
TGI [11]: > 100 µM
TGI [12]: > 100 µM
TGI [13]: > 100 µM
TGI [15]: > 100 µM
TGI [16]: > 100 µM
TGI [17]: 87 µM
TGI [18]: > 100 µM
TGI [19]: > 100 µM
TGI [21]: > 100 µM
TGI [23]: > 100 µM
TGI [24]: > 100 µM
TGI [25]: > 100 µM
TGI [26]: > 100 µM
TGI [27]: > 100 µM
TGI [28]: > 100 µM
TGI [29]: > 100 µM
TGI [57]: > 100 µM
TGI [30]: > 100 µM
TGI [32]: > 100 µM
TGI [33]: > 100 µM
TGI [34]: > 100 µM
TGI [58]: > 100 µM
TGI [35]: > 100 µM
TGI [36]: > 100 µM
TGI [37]: > 100 µM
TGI [38]: > 100 µM
TGI [39]: > 100 µM
TGI [40]: > 100 µM
TGI [41]: > 100 µM
TGI [42]: > 100 µM
TGI [43]: > 100 µM
TGI [44]: > 100 µM
TGI [45]: > 100 µM
TGI [46]: > 100 µM
TGI [47]: > 100 µM
TGI [48]: > 100 µM
TGI [49]: 77.9 µM
TGI [50]: > 100 µM
TGI [51]: > 100 µM
TGI [52]: > 100 µM
TGI [53]: > 100 µM
TGI [54]: > 100 µM
TGI [55]: > 100 µM
TGI [56]: > 100 µM

O=c1cc(N2CCOCC2)[nH]c(=O)n1-c1cccc(Cl)c1
TGI [1]: > 100 µM
TGI [2]: > 100 µM
TGI [4]: > 100 µM
TGI [5]: > 100 µM
TGI [6]: > 100 µM
TGI [7]: > 100 µM
TGI [8]: > 100 µM
TGI [9]: > 100 µM
TGI [10]: > 100 µM
TGI [11]: > 100 µM
TGI [12]: > 100 µM
TGI [13]: > 100 µM
TGI [14]: > 100 µM
TGI [15]: > 100 µM
TGI [16]: > 100 µM
TGI [17]: > 100 µM
TGI [18]: > 100 µM
TGI [19]: > 100 µM
TGI [20]: > 100 µM
TGI [21]: > 100 µM
TGI [22]: > 100 µM
TGI [23]: > 100 µM
TGI [24]: > 100 µM
TGI [25]: > 100 µM
TGI [26]: > 100 µM
TGI [27]: > 100 µM
TGI [28]: > 100 µM
TGI [29]: > 100 µM
TGI [57]: > 100 µM
TGI [30]: > 100 µM
TGI [31]: > 100 µM
TGI [32]: > 100 µM
TGI [33]: > 100 µM
TGI [34]: > 100 µM
TGI [58]: > 100 µM
TGI [35]: > 100 µM
TGI [36]: > 100 µM
TGI [37]: > 100 µM
TGI [38]: > 100 µM
TGI [39]: > 100 µM
TGI [40]: > 100 µM
TGI [41]: > 100 µM
TGI [42]: > 100 µM
TGI [43]: > 100 µM
TGI [44]: > 100 µM
TGI [46]: > 100 µM
TGI [47]: > 100 µM
TGI [48]: > 100 µM
TGI [49]: > 100 µM
TGI [50]: > 100 µM
TGI [51]: > 100 µM
TGI [52]: > 100 µM
TGI [53]: > 100 µM
TGI [54]: > 100 µM
TGI [55]: > 100 µM

Source: PubChem BioAssay (NCI)
